Experimental data taken from patent publication US8765940B2 (priority 2009, dated 2014).
Where two headings read alike, the source gives them in different places.

Assays:
PI3Kδ = PI3Kδ (Homo sapiens (Human), UniProt O00329); format: biochemical; details: PI3Kδ Alphascreen assay
[1] = test system: mouse model of rheumatoid arthritis; details: in vivo; cited from earlier work
[2] = test system: model of systemic lupus erythematosis; details: in vivo; cited from earlier work
[3] = test system: ovalbumin-induced airway inflammation; details: cited from earlier work
protein kinases = details: cited from earlier work
p110δ = p110δ (Homo sapiens (Human), UniProt O00329); details: cited from earlier work
p110δ, sequence (O00329 whole entry, species assumed): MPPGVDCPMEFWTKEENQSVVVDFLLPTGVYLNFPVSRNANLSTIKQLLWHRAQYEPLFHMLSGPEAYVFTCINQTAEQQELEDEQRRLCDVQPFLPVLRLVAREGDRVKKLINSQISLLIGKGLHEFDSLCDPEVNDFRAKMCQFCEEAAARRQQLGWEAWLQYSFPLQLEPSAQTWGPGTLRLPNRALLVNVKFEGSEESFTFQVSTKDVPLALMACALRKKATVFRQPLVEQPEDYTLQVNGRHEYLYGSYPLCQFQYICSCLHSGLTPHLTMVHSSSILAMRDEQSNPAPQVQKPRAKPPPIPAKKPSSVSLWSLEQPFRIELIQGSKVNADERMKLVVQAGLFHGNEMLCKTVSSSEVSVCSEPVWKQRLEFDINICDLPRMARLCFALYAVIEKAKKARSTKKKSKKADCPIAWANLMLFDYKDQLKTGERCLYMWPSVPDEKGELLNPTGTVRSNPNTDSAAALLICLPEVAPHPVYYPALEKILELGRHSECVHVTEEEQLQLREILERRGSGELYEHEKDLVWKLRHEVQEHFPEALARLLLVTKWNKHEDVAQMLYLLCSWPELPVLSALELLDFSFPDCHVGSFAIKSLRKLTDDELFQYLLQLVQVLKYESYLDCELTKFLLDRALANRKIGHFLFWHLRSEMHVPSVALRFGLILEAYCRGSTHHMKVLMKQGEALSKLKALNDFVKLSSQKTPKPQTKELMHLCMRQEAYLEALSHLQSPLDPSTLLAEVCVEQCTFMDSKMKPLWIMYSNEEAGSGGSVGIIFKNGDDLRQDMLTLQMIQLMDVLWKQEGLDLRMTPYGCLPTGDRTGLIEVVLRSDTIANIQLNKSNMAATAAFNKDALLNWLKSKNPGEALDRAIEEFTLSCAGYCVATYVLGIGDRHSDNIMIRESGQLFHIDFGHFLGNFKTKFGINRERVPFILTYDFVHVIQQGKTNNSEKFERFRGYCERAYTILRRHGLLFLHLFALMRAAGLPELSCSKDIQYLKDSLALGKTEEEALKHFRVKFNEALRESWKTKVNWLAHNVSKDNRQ
p110δ, sequence (P27986 whole entry partner, species assumed): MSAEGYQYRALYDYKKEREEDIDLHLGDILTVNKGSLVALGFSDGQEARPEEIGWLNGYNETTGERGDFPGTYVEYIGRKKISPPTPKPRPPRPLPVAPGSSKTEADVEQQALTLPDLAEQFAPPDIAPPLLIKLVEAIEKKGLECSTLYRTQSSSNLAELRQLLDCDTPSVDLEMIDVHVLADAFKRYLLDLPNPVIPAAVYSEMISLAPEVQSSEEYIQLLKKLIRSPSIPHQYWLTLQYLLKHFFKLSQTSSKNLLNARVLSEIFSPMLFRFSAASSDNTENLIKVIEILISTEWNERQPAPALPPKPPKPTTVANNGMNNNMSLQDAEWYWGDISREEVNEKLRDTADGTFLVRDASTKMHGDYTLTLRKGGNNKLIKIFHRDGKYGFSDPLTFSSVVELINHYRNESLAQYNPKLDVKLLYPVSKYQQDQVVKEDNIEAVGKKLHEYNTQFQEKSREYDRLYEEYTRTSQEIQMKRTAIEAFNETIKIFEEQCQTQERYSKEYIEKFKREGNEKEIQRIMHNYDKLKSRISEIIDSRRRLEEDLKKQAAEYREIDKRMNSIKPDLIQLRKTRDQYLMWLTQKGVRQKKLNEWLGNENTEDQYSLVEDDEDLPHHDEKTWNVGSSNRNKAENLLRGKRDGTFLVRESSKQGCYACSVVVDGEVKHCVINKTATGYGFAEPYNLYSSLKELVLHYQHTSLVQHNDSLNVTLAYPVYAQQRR

neutrophil migration = details: cited from earlier work
superoxide release = details: cited from earlier work
Class I PI 3-kinases = details: cited from earlier work

PI3Kδ, sequence (O00329 whole entry): as the sequence (O00329 whole entry, species assumed) above
PI3Kδ, sequence (P27986 whole entry partner): as the sequence (P27986 whole entry partner, species assumed) above

SMILES | Ki (PI3Kδ) | other results
Cc1c(-c2ccccn2)nc2cc(F)ccc2c1N1CC(C)(C)c2ncc(C3=CCOCC3)cc21 [4-(6-(3,6-dihydro-2H-pyran-4-yl)-3,3-dimethyl-2,3-dihydro-1H-pyrrolo[3,2-b]pyridin-1-yl)-7-fluoro-3-methyl-2-(2-pyridinyl)quinoline] | 6.47 nM | 
Cc1nc2ccc(Cl)cc2c(N2CCOc3ccc(N4CCOCC4)cc32)c1C [4-(6-chloro-2,3-dimethyl-4-quinolinyl)-6-(4-morpholinyl)-3,4-dihydro-2H-1,4-benzoxazine] | 1260 nM | 
COc1cc2nc(C)c(C)c(N3CCS(=O)(=O)c4ccc(N5CCOCC5)cc43)c2cc1Cl [4-(6-chloro-7-methoxy-2,3-dimethyl-4-quinolinyl)-6-(4-morpholinyl)-3,4-dihydro-2H-1,4-benzothiazine 1,1-dioxide] | 28 nM | 
Cc1c(-c2ccccn2)nc2cc(F)ccc2c1N1CCOc2ccc(N3CCOCC3)cc21 [4-(7-fluoro-3-methyl-2-(2-pyridinyl)-4-quinolinyl)-6-(4-morpholinyl)-3,4-dihydro-2H-1,4-benzoxazine] | 351 nM | 
Cc1c(-c2ccccn2)nc2cc(F)ccc2c1N1CC(C)(C)c2ccc(-c3nc(N)ncc3Cl)cc21 [5-chloro-4-(1-(7-fluoro-3-methyl-2-(2-pyridinyl)-4-quinolinyl)-3,3-dimethyl-2,3-dihydro-1H-indol-6-yl)-2-pyrimidinamine] | 1430 nM | 
Cc1c(-c2ccccc2F)nc2cccc(Cl)c2c1N1CC(C)(C)c2ccc(N3CCOCC3)cc21 [5-chloro-4-(3,3-dimethyl-6-(4-morpholinyl)-2,3-dihydro-1H-indol-1-yl)-2-(2-fluorophenyl)-3-methylquinoline] | 890 nM | 
Cc1c(-c2ccccn2)nc2cc(F)ccc2c1N1CC2(CCOCC2)c2nc(Cl)c(N3CCOCC3)cc21 [5′-chloro-1′-(7-fluoro-3-methyl-2-(2-pyridinyl)-4-quinolinyl)-6′-(4-morpholinyl)-1′,2,2′,3,5,6-hexahydrospiro[pyran-4,3′-pyrrolo[3,2-b]pyridine]] | 13.3 nM | 
Cc1c(-c2cccc(=O)[nH]2)nc2cc(F)ccc2c1N1CC(C)(C)c2ncc(N3CCOCC3)cc21 [6-(4-(3,3-dimethyl-6-(4-morpholinyl)-2,3-dihydro-1H-pyrrolo[3,2-b]pyridin-1-yl)-7-fluoro-3-methyl-2-quinolinyl)-2(1H)-pyridinone] | 14.7 nM | 
Cc1nc2c(C)cccc2c(N2CC3(CCOCC3)c3ccc(N4CCOCC4)cc32)c1C [6-(4-morpholinyl)-1-(2,3,8-trimethyl-4-quinolinyl)-1,2,2′,3′,5′,6′-hexahydrospiro[indole-3,4′-pyran]] | 121 nM | 
Cc1c(-c2cccc(O)n2)nc2cc(F)ccc2c1N1CC2(CCOCC2)c2ccc(N3CCOCC3)cc21 [6-(7-fluoro-3-methyl-4-(6-(4-morpholinyl)-2′,3′,5′,6′-tetrahydrospiro[indole-3,4′-pyran]-1(2H)-yl)-2-quinolinyl)-2-pyridinol] | 155 nM | 
COc1cc2nc(C)c(C)c(N3CC4(CCOCC4)c4ccc(Br)cc43)c2cc1Cl [6-bromo-1-(6-chloro-7-methoxy-2,3-dimethyl-4-quinolinyl)-1,2,2′,3′,5′,6′-hexahydrospiro[indole-3,4′-pyran]] | 571 nM | 
Cc1nc2ccc(Cl)cc2c(N2CC(C)(C)c3ccc(-c4cn[nH]c4)cc32)c1C [6-chloro-4-(3,3-dimethyl-6-(1H-pyrazol-4-yl)-2,3-dihydro-1H-indol-1-yl)-2,3-dimethylquinoline] | 9530 nM | 
Cc1nc2c(C)cc(Cl)cc2c(N2CC(C)(C)c3ccc(N4CCOCC4)cc32)c1C [6-chloro-4-(3,3-dimethyl-6-(4-morpholinyl)-2,3-dihydro-1H-indol-1-yl)-2,3,8-trimethylquinoline] | 618 nM | 
COc1ccccc1-c1cc(N2CC(C)(C)c3ccc(N4CCOCC4)cc32)c2cc(Cl)ccc2n1 [6-chloro-4-(3,3-dimethyl-6-(4-morpholinyl)-2,3-dihydro-1H-indol-1-yl)-2-(2-methoxyphenyl)quinoline] | 5560 nM | 
CCc1c(C)nc2ccc(Cl)cc2c1N1CC(C)(C)c2ccc(N3CCOCC3)cc21 [6-chloro-4-(3,3-dimethyl-6-(4-morpholinyl)-2,3-dihydro-1H-indol-1-yl)-3-ethyl-2-methylquinoline] | 1130 nM | 
Cc1c(C(F)(F)F)nc2ccc(Cl)cc2c1N1CC(C)(C)c2ccc(N3CCOCC3)cc21 [6-chloro-4-(3,3-dimethyl-6-(4-morpholinyl)-2,3-dihydro-1H-indol-1-yl)-3-methyl-2-(trifluoromethyl)quinoline] | 985 nM | 

SMILES | Ki (PI3Kδ) | other results
COc1cc2nc(C)c(C)c(N3CC(C)(C)c4ccc(N5CCOCC5)cc43)c2cc1Cl [6-chloro-4-(3,3-dimethyl-6-(4-morpholinyl)-2,3-dihydro-1H-indol-1-yl)-7-methoxy-2,3-dimethylquinoline] | 196 nM | 
COc1cc(N2CCOCC2)cc2c1ccn2-c1c(C)c(C)nc2ccc(Cl)cc12 [6-chloro-4-(4-methoxy-6-(4-morpholinyl)-1H-indol-1-yl)-2,3-dimethylquinoline] | 3710 nM | 
COc1cc2nc(C)c(C)c(N3CC(C)(C)c4ccc(N5CCOCC5)c(C)c43)c2cc1Cl [6-chloro-7-methoxy-2,3-dimethyl-4-(3,3,7-trimethyl-6-(4-morpholinyl)-2,3-dihydro-1H-indol-1-yl)quinoline] | 3960 nM | 
CC1(C)CN(c2c3c(nc4ccc(Cl)cc24)CCCC3)c2cc(N3CCOCC3)ccc21 [7-chloro-9-(3,3-dimethyl-6-(4-morpholinyl)-2,3-dihydro-1H-indol-1-yl)-1,2,3,4-tetrahydroacridine] | 2620 nM | 
CC1(C)CN(c2c3c(nc4ccc(Cl)cc24)CCC3)c2cc(N3CCOCC3)ccc21 [7-chloro-9-(3,3-dimethyl-6-(4-morpholinyl)-2,3-dihydro-1H-indol-1-yl)-2,3-dihydro-1H-cyclopenta[b]quinoline] | 772 nM | 
CC1(C)CN(c2c3c(nc4ccc(Cl)cc24)C(C)(C)CC3)c2cc(N3CCOCC3)ccc21 [7-chloro-9-(3,3-dimethyl-6-(4-morpholinyl)-2,3-dihydro-1H-indol-1-yl)-3,3-dimethyl-2,3-dihydro-1H-cyclopenta[b]quinoline] | 111 nM | 
Cc1cc(Cl)c2nc(C)c(C)c(N3CC(C)(C)c4ccc(N5CCOCC5)cc43)c2c1 [8-chloro-4-(3,3-dimethyl-6-(4-morpholinyl)-2,3-dihydro-1H-indol-1-yl)-2,3,6-trimethylquinoline] | 3180 nM | 
Cc1nc2c(Cl)cccc2c(N2CC(C)(C)c3ccc(N4CCOCC4)cc32)c1C [8-chloro-4-(3,3-dimethyl-6-(4-morpholinyl)-2,3-dihydro-1H-indol-1-yl)-2,3-dimethylquinoline] | 50 nM | 
Cc1c(-c2ccccn2)nc2cc(F)ccc2c1N1CC(CO)(CO)c2ccc(N3CCOCC3)cc21 [(1-(7-fluoro-3-methyl-2-(2-pyridinyl)-4-quinolinyl)-6-(4-morpholinyl)-2,3-dihydro-1H-indole-3,3-diyl)dimethanol] | 154 nM | 
O=C1NC(=O)/C(=C\c2ccc3nccnc3c2)S1 [AS 605240] |  | efficacy in a mouse model of rheumatoid arthritis [1]: efficacious; onset of disease in a model of systemic lupus erythematosis [2]: delay onset of disease
Cc1ccccc1-n1c(Cn2cnc3c(N)ncnc32)nc2cccc(C)c2c1=O [IC87114] |  | inflammation and disease in a murine model of asthma [3]: significantly ameliorate inflammation and disease; activity against any protein kinases tested (protein kinases): no activity; inhibits p110δ (p110δ): high nanomolar range (triple digit)
O=c1cc(N2CCOCC2)oc2c(-c3ccccc3)cccc12 [LY294002] |  | neutrophil migration (neutrophil migration): block; superoxide release (superoxide release): block; IC50 (Class I PI 3-kinases; LY294002, read-out: IC50 values against each of these PI 3-kinases): ~1000 nM
COC(=O)N1CCN(c2nc3cc(F)cc(F)c3c(N3CC4(CCOCC4)c4ncc(N5CCOCC5)cc43)c2C)CC1 [methyl 4-(5,7-difluoro-3-methyl-4-(6′-(4-morpholinyl)-2,3,5,6-tetrahydrospiro[pyran-4,3′-pyrrolo[3,2-b]pyridin]-1′(2′H)-yl)-2-quinolinyl)-1-piperazinecarboxylate] | 1.49 nM | 
Cc1c(N2CCN(C(=O)OC(C)(C)C)CC2)nc2cc(F)cc(F)c2c1N1CC2(CCOCC2)c2ncc(N3CCOCC3)cc21 [tert-butyl 4-(5,7-difluoro-3-methyl-4-(6′-(4-morpholinyl)-2,3,5,6-tetrahydrospiro[pyran-4,3′-pyrrolo[3,2-b]pyridin]-1′(2′H)-yl)-2-quinolinyl)-1-piperazinecarboxylate] | 12.4 nM | 
COC[C@H]1OC(=O)c2coc3c2[C@@]1(C)C1=C(C3=O)[C@@H]2CCC(=O)[C@@]2(C)C[C@H]1OC(C)=O [wortmannin] |  | neutrophil migration (neutrophil migration): block; superoxide release (superoxide release): block; IC50 (Class I PI 3-kinases; wortmannin, read-out: IC50 values against each of the various Class I PI 3-kinases): 1 to 10 nM
